Experimental data published in patent US5182367A, “5-lipoxygenase activating protein” (priority 1990, dated 1993).

Legend:
18kD protein (FLAP) [1] = target: T1, 18kD protein (FLAP) (Homo sapiens, UniProt P20292); experiment: photoaffinity labelling of the 18kD protein with 125I-L-669,083; assay type: binding; conditions: for inhibition of photoaffinity labelling of the 18kD protein: 125I-L-669,083 probe, result in words
T1 construct: Incubation of ^125 I-L-669,083 with neutrophil extracts followed by irradiation with ultraviolet light; from tissue; host or cells: neutrophil extracts / human leukocyte membranes (endogenous protein)
T1 sequence (P20292 1-161): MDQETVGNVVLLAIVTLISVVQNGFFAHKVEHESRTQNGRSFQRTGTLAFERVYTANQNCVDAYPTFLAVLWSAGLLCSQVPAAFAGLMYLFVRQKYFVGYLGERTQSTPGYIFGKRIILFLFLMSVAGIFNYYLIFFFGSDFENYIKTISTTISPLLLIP
Description: The cellular target of MK-886 was identified by its specific labelling with an I^125 radio-labelled photoaffinity probe (^125 I-L-669,083) and by its retention on agarose gels to which analogues of MK-886 had been bound. […] This protein co-migrated on SDS-polyacrylamide gels with the photoaffinity-labelled protein. The 18kD protein comprised a minor portion of the […]-centrifugation pellet protein and was essentially absent from other cellular fractions.
A polyclonal rabbit antibody was prepared to the N-terminal 39 amino acids of the 18kD protein. The peptide immunogen was prepared by fusion of the DNA sequence coding for the peptide to the N-terminus of Che Y protein, and its expression in and purification from E. coli (Gan, Z. R., Gene 79, 159-166 (1989)). […] When human leukocyte membranes labelled with the ^125 I-L-669,083 photoaffinity probe were immunoprecipitated with the antipeptide antibody, a single labelled protein of Mr 18,000 was observed which was absent in membranes labelled in the presence of competing MK-886.

18kD protein (FLAP) [2] = target: T2, 18kD protein (FLAP) (Rattus norvegicus, UniProt P20291); experiment: elution of the 18kD protein from MK-886 analogue affinity columns; assay type: binding, rat and human; conditions: solubilized neutrophil membranes, result in words
T2 sequence (P20291 1-161): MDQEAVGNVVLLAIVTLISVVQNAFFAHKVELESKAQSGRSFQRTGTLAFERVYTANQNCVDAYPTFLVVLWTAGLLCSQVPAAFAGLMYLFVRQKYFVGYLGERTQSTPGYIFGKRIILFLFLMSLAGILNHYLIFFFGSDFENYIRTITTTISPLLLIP
Experimental: Rat peritoneal neutrophils (Ham, E. A. et al. Proc. Natn. Acad. Sci. USA 80, 4349-4353 (1983)) and human peripheral neutrophils (Boyum, A. Scand. J. Clin. Lab. Invest. (suppl. 97) 21, 77-89 (1968)) at 10^8 cells/ml were sonicated in 50 mM Tris-HCl buffer, pH 7.4, 140 mM NaCl, 2 mM EDTA, 1 mM DTT (dithiotreitol), 10% glycerol (homogenization buffer), together with the protease inhibitors 1 mM phenylmethylsulphonyl fluoride, […], and 10 mM furyl saccharine. After removal of 1000 g and 10,000 g-centrifugation pellets, the 100,000 g pellet was resuspended (3 mg/ml) in the homogenization buffer.
To purify FLAP, the microsome suspension was solubilized on ice for 30 minutes in 50 mM Tris-HCl buffer, pH 7.4, with 140 mM NaCl, 0.5 mM DTT, 5% glycerol and 1% CHAPS detergent (3-[(3-cholamidopropyl)-dimethylammonio]-1-propanesulfonate). After centrifugation for 10 minutes at 30,000 g, the supernatant was applied to 3 ml columns (6×10^9 cell equivalents per column) containing the affinity gel which was prepared by coupling MK-886 in THF (tetrahydrofuran) to pre-activated Affi-Gel 10, capping with ethanolamine,and washing with isopropanol. The columns were washed with […] solubilization buffer for 16 hours at 5° C. and eluted for 1 hour with four column volumes of buffer containing 100 μM MK-886.

leukotriene biosynthesis = leukotriene biosynthesis / production (cells not specified); assay type: cell-based; conditions: result in words, cells not given
[3] = tested on: rat peritoneal neutrophils; experiment: A23187-stimulated LT synthesis in neutrophils; assay type: cell-based
Experimental: (§1) When the parental osteosarcoma 143 cells or the cells expressing 5-LO or FLAP alone were treated with the Ca^2+ ionophore A23187, no arachidonic acid metabolites were detected. […] A23187-treated rat neutrophils produced these products, as well as 5-HETE and the LTB4 metabolites 20-hydroxy LTB4 and 20-carboxy LTB4. The 5-LO/FLAP cell line produced only 14% of the neutrophil level of LTB4 (0.15 nmol/mg protein versus 1.1 nmol/mg protein), while it produced 41% as much of the LTA4 hydrolysis products (0.064 nmol 6-trans LTB4 and 0.059 nmol 6-trans-12-epi LTB4 /mg protein versus 0.18 nmol 6-trans LTB4 and 0.12 nmol 6-trans-12-epi LTB4 /mg protein).
(§2) Normal rat peritoneal neutrophils were prepared as described by Ham, E. A. et al. (1983, supra). Osteosarcoma 143 cell lines expressing 5-LO were isolated by the method of Rouzer, C. A. et al., J. Biol. Chem. 263, 10135-10140 (1988). The expression vector used contains the CMV immediate early promoter which drives the expression of the 5-LO gene, a hygromycin resistance gene as a selectable marker, and the EBV origin of replication (Rouzer et al., supra). An EcoRI fragment derived from the RBL-1 cDNA clone containing the cDNA insert for rat FLAP was cloned into the EcoRI site of the vector pSVLneo (Dixon, R. A. F. et al., Nature 326, 73-79 (1987)). […]

[4] = tested on: osteosarcoma 143 cell line expressing 5-LO and FLAP; experiment: A23187-stimulated LT synthesis in the 5-LO/FLAP cell line; assay type: cell-based, human
Experimental: as §1, §2

[5] = tested on: leukotriene synthesis in human leukocytes; experiment: inhibition of leukotriene synthesis in human leukocytes; assay type: cell-based; conditions: Leukocyte; human leukocytes at similar protein concentrations

inhibition of photoaffinity labelling of the 18kD protein (18kD protein (FLAP) [1]) | elution of the 18kD protein from affinity columns/gels (18kD protein (FLAP) [2]) | Structure (SMILES) | inhibition of leukotriene biosynthesis / production (leukotriene biosynthesis) | LT synthesis blocked [3] | LT synthesis blocked [4] | IC50 (18kD protein (FLAP) [1]) [nM] | IC50 [5] [nM]
did not inhibit photoaffinity labelling | nor did they elute this protein | COc1ccc2c(c1)c(C(C)C(=O)O)c(C)n2Cc1ccc(Cl)cc1 [L-583,916, 2-(1-p-chlorobenzyl-5-methoxy-2-methylindol-3-yl)propionic acid] | do not inhibit leukotriene biosynthesis | – | – | – | –
nor inhibited photoaffinity labelling | neither eluted the 18kD protein | COc1ccc2nc3cc(OC)c(=O)c(Br)c-3sc2c1 [L-651,392] | inhibitory effects on leukotriene production | – | – | – | –

The next lines start with the compound.

Structure (SMILES) | inhibition of photoaffinity labelling of the 18kD protein (18kD protein (FLAP) [1]) | elution of the 18kD protein from affinity columns/gels (18kD protein (FLAP) [2]) | inhibition of leukotriene biosynthesis / production (leukotriene biosynthesis) | LT synthesis blocked [3] | LT synthesis blocked [4] | IC50 (18kD protein (FLAP) [1]) [nM] | IC50 [5] [nM]
O=c1ccc2nc3ccccc3sc-2c1Cl [L-615,919, 4-chloro-3H-phenothiazin-3-one] | – | – | – | blocked LT synthesis | blocked LT synthesis | – | –
CC(C)c1ccc2c(c1)c(SC(C)(C)C)c(CC(C)(C)C(=O)O)n2Cc1ccc(Cl)cc1 [MK-886, 3-[1-(4-chlorobenzyl)-3-t-butylthio-5-isopropylindol-2-yl]-2,2-dimethylpropanoic acid] | – | eluted by MK-886 | – | blocked LT synthesis | blocked LT synthesis | 80 | 100
Clc1ccc(C(c2ccc(Cl)cc2)n2cc[n+](CC(OCc3ccc(Cl)cc3Cl)c3ccc(Cl)cc3Cl)c2)cc1 (stereo not drawn) [calmidazolium] | nor inhibited photoaffinity labelling | neither eluted the 18kD protein | inhibitory effects on leukotriene production | – | – | – | –
CC(Cc1ccc(O)c(O)c1)C(C)Cc1ccc(O)c(O)c1 (stereo not drawn) [nordihydroguairaretic acid] | nor inhibited photoaffinity labelling | neither eluted the 18kD protein | inhibitory effects on leukotriene production | – | – | – | –
CN1CCN(CCCN2c3ccccc3Sc3ccc(C(F)(F)F)cc32)CC1 [trifluoroperazine] | nor inhibited photoaffinity labelling | – | inhibitory effects on leukotriene production | – | – | – | –
